Tests used:
interferon (α) (IFN-α) = experiment: Cytokine induction in human cells: IFN-α secreted by PBMC into culture media (ELISA); assay type: cell-based; details: for Maximal Response IFN / Minimum Effective Concentration IFN / minimal effective concentration: human PBMC; for Maximal Response IFN / Minimum Effective Concentration IFN: median where tested in more than one experiment; for minimal effective concentration: lowest tested concentration inducing IFN-α over usually 20 pg/mL, median where more than one experiment, read-out: Minimum Effective Concentration (μM) IFN; for Maximal Response (pg/mL) IFN: maximal response in dose response curve, median
Outline: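 IFN-α secreted by density-gradient-isolated PBMC (final 2×10^6 cells/mL) was quantified by ELISA after 18–24 h compound exposure at 37 °C, typically 30-0.014 μM in 3-fold steps with ≤1% DMSO. Readings corrected for background and reference-compound variability; lowest concentration above usually 20 pg/mL reported, plus maximal response (pg/mL).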

[1] = tested on: tumor necrosis factor (α) (TNF-α); experiment: Cytokine induction in human cells: TNF-α secreted by PBMC into culture media (ORIGEN M-Series immunoassay); assay type: cell-based; parameters: key to Maximal Response (pg/mL) TNF / Maximal Response TNF: If any negative values result from background subtraction, the reading is reported as “*”, and is noted as not reliably detectable; details: for Minimum Effective Concentration TNF / Maximal Response TNF / minimal effective concentration: human PBMC; for Minimum Effective Concentration TNF: median where tested in more than one experiment; for Maximal Response TNF / Maximal Response (pg/mL) TNF: median; for minimal effective concentration: lowest tested concentration inducing TNF-α over usually 40 pg/mL, median where more than one experiment, read-out: Minimum Effective Concentration (μM) TNF; for Maximal Response (pg/mL) TNF: maximal response in dose response curve
Outline: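 Secreted TNF-α (pg/mL) was quantified by ORIGEN M-Series immunoassay after 18 to 24 hours culture at 37° C of human PBMC (2×10^6 cells/mL final) with test compound (usually 30-0.014 μM, 3-fold series, DMSO ≤1%). Values were corrected for DMSO or experimental background and a reference-compound ratio, giving a minimum effective concentration.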

[2] = Table 11, * = TNF below experimental background of 40 pg/mL
[3] = Table 12, * = below the experimental background of 40 pg/mL
[4] = Table 10, * = below experimental background level
[5] = Table 8, background-subtracted, reference-adjusted
[6] = Table 7, background-subtracted, reference-adjusted

Row | SMILES | Maximal Response IFN (interferon (α) (IFN-α); Table 11) [pg/mL] | Minimum Effective Concentration IFN (interferon (α) (IFN-α); Table 11) [µM] | Minimum Effective Concentration TNF ([1]; Table 11) [µM] | Maximal Response TNF [1, 2] | also measured
1 | CCc1nc2c(N)nc3ccccc3c2n1CCNS(C)(=O)=O [Analog 69] | 1610 | 0.12 | 10 | 820 pg/mL | 
2 | CS(=O)(=O)NCCn1c(CCO)nc2c(N)nc3cccnc3c21 [Example 147, N-{2-[4-Amino-2-(2-hydroxyethyl)-1H-imidazo[4,5-c][1,5]naphthyridin-1-yl]ethyl}methanesulfonamide] |  |  |  |  | Maximal Response IFN (interferon (α) (IFN-α); Table 12): 49 pg/mL; Maximal Response TNF [1, 3]: *
3 | CCOCc1nc2c(N)nc3ccccc3c2n1CC(C)(C)NC(=O)NC(C)C [Analog 108] | 966 | 0.37 | 1.11 | 10587 pg/mL | 
4 | CCc1nc2c(N)nc3cc(-c4cncc(CO)c4)ccc3c2n1CC(C)(C)O [Analog 15] |  |  |  |  | minimal effective concentration (interferon (α) (IFN-α); Table 10): 0.014 µM; Maximal Response (pg/mL) IFN (interferon (α) (IFN-α); [4]): 2084 pg/mL; minimal effective concentration ([1]; Table 10): 1.11 µM; Maximal Response (pg/mL) TNF [1, 4]: 10087 pg/mL
5 | CCOCc1nc2c(N)nc3ccccc3c2n1CCCN [Analog 85] | 1325 | 0.12 | 30 | 411 pg/mL | 
6 | Cc1nc2c(N)nc3cccnc3c2n1CC(C)C [Analog 133, 2-methyl-1-(2-methylpropyl)-1H-imidazo[4,5-c][1,5]naphthyridin-4-amine] |  |  |  |  | Maximal Response IFN (interferon (α) (IFN-α); Table 12): 1117 pg/mL; Maximal Response TNF [1, 3]: 699 pg/mL
7 | Cc1nc2c(N)nc3ccccc3c2n1CCOCCN(C)S(C)(=O)=O [Analog 77] | 1001 | 0.12 | 1.11 | 3571 pg/mL | 
8 | COCCc1nc2c(N)nc3cc(-c4cncc(CO)c4)ccc3c2n1CC(C)C [Analog 27] |  |  |  |  | minimal effective concentration (interferon (α) (IFN-α); Table 10): 0.014 µM; Maximal Response (pg/mL) IFN (interferon (α) (IFN-α); [4]): 1332 pg/mL; minimal effective concentration ([1]; Table 10): 0.04 µM; Maximal Response (pg/mL) TNF [1, 4]: 9563 pg/mL
9 | Cc1nc2c(N)nc3ccccc3c2n1CCCCCS(C)(=O)=O [Analog 73] | 1294 | 0.37 | 3.33 | 771 pg/mL | 
10 | CC(C)(O)Cn1c(CCO)nc2c(N)nc3cccnc3c21 [Example 149, 1-[4-Amino-2-(2-hydroxyethyl)-1H-imidazo[4,5-c][1,5]naphthyridin-1-yl]-2-methylpropan-2-ol] |  |  |  |  | Maximal Response (pg/mL) IFN (interferon (α) (IFN-α); [5]): 1849 pg/mL; Maximal Response IFN (interferon (α) (IFN-α); Table 12): 2063 pg/mL; Maximal Response (pg/mL) TNF [1, 5]: 342 pg/mL; Maximal Response TNF [1, 3]: 331 pg/mL
11 | COCCc1nc2c(N)nc3ccccc3c2n1CCNC(=O)CC(C)C [Analog 106] | 1204 | 0.12 | 3.33 | 5694 pg/mL | 
12 | CC(C)C(=O)NCCCn1c(CCO)nc2c(N)nc3ccccc3c21 [Example 141, N-{3-[4-Amino-2-(2-hydroxyethyl)-1H-imidazo[4,5-c]quinolin-1-yl]propyl}-2-methylpropionamide] | 14046 |  |  | 243 pg/mL | 
13 | COCCc1nc2c(N)nc3ccccc3c2n1CC(C)(C)CNS(C)(=O)=O [Analog 67] | 1805 | 0.014 | 0.04 | 5467 pg/mL | 
14 | CCCc1nc2c(N)nc3cc(-c4cccnc4)ccc3c2n1CCCCNC(=O)NC1CCCC1 [Analog 34] |  |  |  |  | minimal effective concentration (interferon (α) (IFN-α); Table 10): 0.014 µM; Maximal Response (pg/mL) IFN (interferon (α) (IFN-α); [4]): 649 pg/mL; minimal effective concentration ([1]; Table 10): 0.37 µM; Maximal Response (pg/mL) TNF [1, 4]: 9019 pg/mL
15 | COCOCc1nc2c(N)nc3ccccc3c2n1CC(C)(C)CNC(=O)c1ccccc1 [Analog 95] | 832 | 0.04 | 0.37 | 1820 pg/mL | 
16 | CCOCc1nc2c(N)nc3ccccc3c2n1CC(C)(C)CNC(=O)Nc1ccccc1 [Analog 91] | 1133 | 0.014 | 0.04 | 3618 pg/mL | 
17 | COCCc1nc2c(N)nc3ccccc3c2n1CCCNS(C)(=O)=O [Analog 62] | 3995 | 0.014 | 1.11 | 954 pg/mL | 
18 | COCCc1nc2c(N)nc3ccccc3c2n1CCCCNS(C)(=O)=O [Analog 52] | 7594 | 0.014 | 0.37 | 1931 pg/mL | 
19 | NCCCCn1c(CCO)nc2c(N)nc3ccccc3c21 [Example 114] | 23 | 30 | >30 | * | 
20 | CCOCc1nc2c(N)nc3cc(-c4cccc(C(=O)N5CCOCC5)c4)ccc3c2n1CC1CCCCC1 [Analog 46] |  |  |  |  | minimal effective concentration (interferon (α) (IFN-α); Table 10): 0.014 µM; Maximal Response (pg/mL) IFN (interferon (α) (IFN-α); [4]): 815 pg/mL; minimal effective concentration ([1]; Table 10): 0.37 µM; Maximal Response (pg/mL) TNF [1, 4]: 1054 pg/mL
21 | CCc1nc2c(N)nc3cccnc3c2n1CC(C)(C)O [Analog 127, 1-(4-amino-2-ethyl-1H-imidazo[4,5-c][1,5]naphthyridin-1-yl)-2-methylpropan-2-ol] |  |  |  |  | Maximal Response IFN (interferon (α) (IFN-α); Table 12): 2150 pg/mL; Maximal Response TNF [1, 3]: 3863 pg/mL
22 | CS(=O)(=O)NCCCCn1c(CCO)nc2c(N)nc3cccnc3c21 [Example 145, N-{4-{4-Amino-2-(2-hydroxyethyl)-1H-imidazo[4,5-c][1,5]naphthyridin-1-yl]butyl}methanesulfonamide] |  |  |  |  | Maximal Response IFN (interferon (α) (IFN-α); Table 12): 3008 pg/mL; Maximal Response TNF [1, 3]: 7 pg/mL
23 | CC(C)(Cn1c(CO)nc2c(N)nc3ccccc3c21)NS(C)(=O)=O [Example 7, N-[2-(4-Amino-2-hydroxymethyl-1H-imidazo[4,5-c]quinolin-1-yl)-1,1-dimethylethyl]methanesulfonamide] | 1670 |  |  | 154 pg/mL | Maximal Response (pg/mL) IFN (interferon (α) (IFN-α); [6]): 2250 pg/mL; Maximal Response (pg/mL) TNF [1, 6]: 121 pg/mL
24 | CCCc1nc2c(N)nc3cc(-c4cccnc4)ccc3c2n1CCCCNC(=O)C(C)C [Analog 38] |  |  |  |  | minimal effective concentration (interferon (α) (IFN-α); Table 10): 0.12 µM; Maximal Response (pg/mL) IFN (interferon (α) (IFN-α); [4]): 1610 pg/mL; minimal effective concentration ([1]; Table 10): 0.37 µM; Maximal Response (pg/mL) TNF [1, 4]: 960 pg/mL
25 | CC(C)NC(=O)NCCCn1c(CCO)nc2c(N)nc3ccccc3c21 [Example 99] | 21829 | 0.37 | >30 | * | 
26 | CCc1nc2c(N)nc3cc(-c4cccnc4)ccc3c2n1CC(C)(C)O [Analog 8, 1-(4-amino-2-ethyl-7-pyridin-3-yl-1H-imidazo[4,5-c]quinolin-1-yl)-2-methylpropan-2-ol] |  |  |  |  | Maximal Response (pg/mL) IFN (interferon (α) (IFN-α); Table 9, background-subtracted, reference-adjusted): 1118 pg/mL; Maximal Response (pg/mL) IFN (interferon (α) (IFN-α); [4]): 1652 pg/mL; Maximal Response (pg/mL) TNF ([1]; Table 9, * = below experimental background level of 40 pg/mL): 3234 pg/mL; Maximal Response (pg/mL) TNF [1, 4]: 3571 pg/mL
27 | CCOCc1nc2c(N)nc3cc(-c4ccccc4)ccc3c2n1CC(C)(C)O [Analog 24] |  |  |  |  | minimal effective concentration (interferon (α) (IFN-α); Table 10): 0.014 µM; Maximal Response (pg/mL) IFN (interferon (α) (IFN-α); [4]): 440 pg/mL; minimal effective concentration ([1]; Table 10): 0.12 µM; Maximal Response (pg/mL) TNF [1, 4]: 2238 pg/mL

Source: patent publication US8846710B2, “Method of preferentially inducing the biosynthesis of interferon” (3M Innovative Properties Company, priority 2005, dated 2014)
